Source: patent publication US9643928B2, “Crystalline forms of {[1-cyano-5-(4-chlorophenoxy)-4-hydroxy-isoquinoline-3-carbonyl]-amino}-acetic acid” (FIBROGEN, INC., priority 2013, dated 2017)
Entries after “also recorded” stand apart in the source; their conditions may differ.

Key:
[1] = Reflux of Form 1 in water, monitored by XRPD; assay type: physicochemical
From the text: Form 1 was refluxed in water and the crystallinity of the solid was monitored by XRPD.

[2] = Relative stability of Form 1 and Form 2 (summary of Example 3); assay type: physicochemical
From the text: The relative stability of Form 1 and Form 2 have been studied under different conditions (see Example 3).

[3] = Stability of Form 1 in water at 25° C., XRPD; assay type: physicochemical; conditions: six days
Protocol: Form 1 was suspended in water at 25° C., and the crystallinity of the solid was analysed by XRPD over a period of time.

[4] = Maturation of Form 1 in water with or without seeds of Form 2, XRPD; assay type: physicochemical; conditions: 50° C./room temperature (4 h-cycles), 75% RH
Protocol: A suspension of a solid mixture of Form 1 and Form 2 (1:1) in water was incubated at 50° C./room temperature (4 h-cycles), and at 75% RH for four days. After this time, the solid was analysed by XRPD. The crystalline pattern matched Form 2, and no traces of Form 1 were detected in this analysis.
Form 1 was suspended in water and incubated at 50° C./room temperature (4 h-cycles), and at 75% RH. In this case, the transformation of Form 1 into Form 2 was slower.

[5] = system: Female Lewis rats challenged with peptidoglycan-polysaccharide polymers (PG-PS); assay: Anemia of chronic disease model (PG-PS challenge); assay type: in vivo
Protocol: Female Lewis rats were challenged with peptidoglycan-polysaccharide polymers (PG-PS) to induce arthritis and anemia. Arthritis and anemia were allowed to develop for 28 days prior to initiation of treatment with Compound A (oral gavage, 8 or 20 mg/kg) or vehicle (n=8/group). Treatments were administered 3 times per week (Monday, Wednesday, and Friday), for 2 weeks. Progression of the model was monitored by measurement of paw swelling and hematology parameters. Blood samples were analyzed for hematopoiesis and iron parameters. The study also included three non-challenged control groups (n=5/group) that were injected with saline rather than PG-PS and then treated with vehicle or Compound A (8 or 20 mg/kg) as described for the PG-PS animals. […] In addition to anemia, PG-PS-challenged rats developed systemic inflammation and arthritis, as indicated by elevated white blood cell counts and swelling of the extremities.

[6] = system: Female Wistar rats with subtotal nephrectomy; assay: Anemia induced by chronic kidney disease (5/6 nephrectomy, rat remnant kidney model); assay type: in vivo
From the text: Female Wistar rats underwent subtotal nephrectomy (⅚) surgery to induce chronic kidney disease by ligating the left kidney to infarct ⅔ of the kidney while the right kidney underwent simultaneous total nephrectomy. As a control, additional animals underwent a sham surgery, without nephrectomy. Five weeks after surgery, anemia and chronic kidney disease in the nephrectomized animals were confirmed by clinical pathology and animals were then assigned to one of three treatment groups (n=8/group) and treated with 0 (vehicle), 8 or 20 mg/kg Compound A. The sham group (n=8) received 0 mg/kg (vehicle). Starting 6 weeks after surgery, all animals were dosed TIW (on Monday, Wednesday, and Friday) via oral gavage for 2 weeks. Whole blood samples were collected 5, 7, and 8 weeks after surgery.

healthy male volunteers = assay: Single oral dose in healthy male volunteers: erythropoietin, reticulocyte and hemoglobin levels; assay type: in vivo, human
Protocol: A single dose of Compound A (Form 2, capsules) was administered orally to healthy male volunteers. Compound A was provided in 1 mg and 5 mg capsules with the dose being rounded to the nearest whole capsule. In cohorts 1-4 the doses were 0.05 mg/kg, 0.15 mg/kg, 0.3 mg/kg and 0.4 mg/kg respectively. The time points for blood collection were: predose, 8, 12, 16, 20, 24, 30, 48, 72, 96 and 120 hours, days 8, 10, 12, and 15 post dose.

male Swiss Webster mice = assay: Hemoglobin and hematocrit levels in mice after 1 week of intermittent oral dosing; assay type: in vivo
Protocol: Compound A (2, 6, 20, 60, 100 or 200 mg/kg as an oral gavage) or vehicle control were administered orally 3 times in 1 week on Monday, Wednesday, and Friday (4-8 male Swiss Webster mice/group). Three days after the last dose, all animals were euthanized and blood and serum were collected for complete blood counts (CBC) and serum chemistry.

[7] = Stability of solid forms in humidity chamber at 40° C. and 75% RH, re-analysed by XRPD; assay type: physicochemical; conditions: one week
Protocol: The solids were then stored in the humidity chamber at 40° C. and 75% RH for a week to assess their stability under these conditions, and re-analysed by XRPD.

[8] = 8 or 20 mg/kg oral 3 times per week for 2 weeks, statistically significant at 20 mg/kg
[9] = 8 and 20 mg/kg oral TIW, after 2 weeks of treatment
[10] = cohort 2, 0.15 mg/kg single oral dose
[11] = cohort 3, 0.3 mg/kg single oral dose
[12] = all dose groups 2-200 mg/kg, oral gavage 3 times in 1 week, three days after last dose

N#Cc1nc(C(=O)NCC(=O)O)c(O)c2c(Oc3ccc(Cl)cc3)cccc12 [Form 1, {[1-cyano-5-(4-chlorophenoxy)-4-hydroxy-isoquinoline-3-carbonyl]-amino}-acetic acid]
crystallinity by XRPD on reflux in water ([1]; after 2.5 h): several new diffraction peaks corresponding to Form 2
crystallinity by XRPD on reflux in water ([1]; after 10 h at reflux): transformation of Form 1 into Form 2 was complete
hygroscopicity [2]: low hygroscopicity
stability to humidity [2]: stable
conversion of form on maturation in isopropyl acetate (IPAc) ([2]; 5° C., 25° C. and 50° C.): converts to Form 2
conversion of form on heating ([2]; heating above 200° C.): converts to Form 2
changes in crystalline pattern in aqueous suspension [3]: remains unchanged; also recorded: No changes
transformation on maturation in water without seeds of Form 2 ([4]; after 4 days): clear indication of Form 2 forming
transformation on maturation in water without seeds of Form 2 ([4]; after 15 days): completely turned to Form 2

N#Cc1nc(C(=O)NCC(=O)O)c(O)c2c(Oc3ccc(Cl)cc3)cccc12 [Compound A, {[1-cyano-5-(4-chlorophenoxy)-4-hydroxy-isoquinoline-3-carbonyl]-amino}-acetic acid]
HCT decrease induced by PG-PS challenge [5, 8]: corrected
Hb decrease induced by PG-PS challenge [5, 8]: corrected
MCH decrease induced by PG-PS challenge [5, 8]: corrected
RBC decrease induced by PG-PS challenge [5, 8]: corrected
TIBC increase induced by PG-PS challenge [5, 8]: corrected
anemia associated with anemia of chronic disease ([5]; intermittent treatment): significantly alleviated
Hb, HCT and RBC (all three parameters) relative to non-anemic sham control group ([6]; 20 mg/kg oral TIW, 2 weeks): normalized
MCV in nephrectomized animals ([6]; 20 mg/kg, after 2 weeks of treatment): significantly higher
HCT compared to vehicle controls [6, 9]: significantly elevated
Hb compared to vehicle controls [6, 9]: significantly elevated
RBC compared to vehicle controls [6, 9]: significantly elevated
MCH values in nephrectomized animals ([6]; 8 and 20 mg/kg, not significant): higher
anemia associated with 5/6 nephrectomy ([6]; intermittent treatment for 2 weeks): corrected
change in mean hemoglobin levels (healthy male volunteers; Cohort 1, 0.05 mg/kg, Day 0 to Day 8): did not change
Reticulocyte values (% baseline ± SD) (healthy male volunteers; Cohort 1, 0.05 mg/kg, Day 3): 104 ± 8 % baseline
Reticulocyte values (% baseline ± SD) (healthy male volunteers; Cohort 1, 0.05 mg/kg, Day 5): 111 ± 10 % baseline
Reticulocyte values (% baseline ± SD) (healthy male volunteers; Cohort 1, 0.05 mg/kg, Day 8): 120 ± 20 % baseline
Reticulocyte values (% baseline ± SD) (healthy male volunteers; Cohort 2, 0.15 mg/kg, Day 3): 111 ± 19 % baseline
Reticulocyte values (% baseline ± SD) (healthy male volunteers; Cohort 2, 0.15 mg/kg, Day 5): 121 ± 22 % baseline
Reticulocyte values (% baseline ± SD) (healthy male volunteers; Cohort 3, 0.3 mg/kg, Day 3): 127 ± 3 % baseline
Reticulocyte values (% baseline ± SD) (healthy male volunteers; Cohort 3, 0.3 mg/kg, Day 5): 141 ± 22 % baseline
Reticulocyte values (% baseline ± SD) (healthy male volunteers; Cohort 4, 0.4 mg/kg, Day 3): 163 ± 21 % baseline
Reticulocyte values (% baseline ± SD) (healthy male volunteers; Cohort 4, 0.4 mg/kg, Day 5): 134 ± 22 % baseline
time of peak erythropoietin levels (healthy male volunteers; cohort 1, 0.05 mg/kg single oral dose): approximately 16.8 hours
mean maximum plasma erythropoietin concentration (healthy male volunteers; cohort 1, 0.05 mg/kg single oral dose, baseline mean 11.4 mIU/mL): 27.2 mIU/mL
median maximum erythropoietin concentration (healthy male volunteers; [10]): 81.7 mIU/ml
time of peak erythropoietin levels (mean) (healthy male volunteers; [10]): 14 h
time until mean erythropoietin levels trended back to baseline (healthy male volunteers; [10]): approximately 5 days
Reticulocyte values (% baseline ± SD) (healthy male volunteers; cohort 2, 0.15 mg/kg, Day 8): 180 ± 53 % baseline
mean hemoglobin increase (healthy male volunteers; cohort 2, 0.15 mg/kg, Day 8): 0.3 g/dL
average maximum erythropoietin concentration (healthy male volunteers; [11]): approximately 620 mIU/mL
time of peak erythropoietin levels (mean) (healthy male volunteers; [11]): 23 h
Reticulocyte values (% baseline ± SD) (healthy male volunteers; cohort 3, 0.3 mg/kg, Day 8): 231 ± 40 % baseline
mean hemoglobin increase (healthy male volunteers; cohort 3, 0.3 mg/kg, Day 8): 0.8 g/dL
median time to maximum EPO concentration (healthy male volunteers; cohort 4, 0.4 mg/kg single oral dose): 20 h
mean maximum plasma erythropoietin concentration (healthy male volunteers; cohort 4, 0.4 mg/kg single oral dose, pending re-analysis of one sample above upper limit of quantitation): 2,900 mIU/mL
Reticulocyte values (% baseline ± SD) (healthy male volunteers; cohort 4, 0.4 mg/kg, Day 8): 376 ± 60 % baseline
mean hemoglobin increase (healthy male volunteers; cohort 4, 0.4 mg/kg, Day 8): 0.7 g/dL
mean hemoglobin increase (healthy male volunteers; cohort 4, 0.4 mg/kg, Day 15): 1.1 g/dL
Mean hematocrit (HCT) compared to vehicle control (male Swiss Webster mice; [12]): significantly higher
Mean hemoglobin (Hb) compared to vehicle control (male Swiss Webster mice; [12]): significantly higher
Mean red blood counts (RBC) compared to vehicle control (male Swiss Webster mice; [12]): significantly higher
Hb levels increase (male Swiss Webster mice; lowest dose tested, 2 mg/kg, 1-week study): more than 1 g/dL

N#Cc1nc(C(=O)NCC(=O)O)c(O)c2c(Oc3ccc(Cl)cc3)cccc12 [XRPD 7]
Stability at 40° C./75% RH (form found by XRPD) [7]: changed into Form 2

N#Cc1nc(C(=O)NCC(=O)O)c(O)c2c(Oc3ccc(Cl)cc3)cccc12 [Form 2, {[1-cyano-5-(4-chlorophenoxy)-4-hydroxy-isoquinoline-3-carbonyl]-amino}-acetic acid]
hygroscopicity [2]: low hygroscopicity
stability to humidity [2]: stable
relative thermodynamic stability ([2]; conditions investigated): thermodynamically more stable than Form 1
transformation of Form 2 into Form 1 ([2]; conditions investigated): has not been observed
Stability at 40° C./75% RH (form found by XRPD) [7]: remained unchanged; also recorded: Form 2
